From patent publication US20240148821A1, “PHARMACEUTICAL USE OF CYCLIC PEPTIDE COMPOUND” (CHUGAI SEIYAKU KABUSHIKI KAISHA, priority 2021, published 2024) come the findings set out here.

pIC50: −log10 of the molar value. Bridge positions count the residues as written; N and C are the ends. Square brackets hold non-standard residues; d marks the D form. Peptide text beside a SMILES is read from it. * marks the point of attachment. hPhe(3-Cl-4-CF3) = N[C@@H](CCc1ccc(C(F)(F)F)c(Cl)c1)C(=O)O; NMePhe(4-CF3) = CN[C@@H](Cc1ccc(C(F)(F)F)cc1)C(=O)O; NMeGly(cPent) = CN[C@H](C(=O)O)C1CCCC1; NMeCha = CN[C@@H](CC1CCCCC1)C(=O)O; NEtLeu = CCN[C@@H](CC(C)C)C(=O)O; NMeAhp(2) = CCCCC[C@H](NC)C(=O)O; NMeI = CC[C@H](C)[C@H](NC)C(=O)O; NMeD = CN[C@@H](CC(=O)O)C(=O)O; NMeL = CN[C@@H](CC(C)C)C(=O)O; NMeNle = CCCC[C@H](NC)C(=O)O; NMeNva = CCC[C@H](NC)C(=O)O; NMeV = CN[C@H](C(=O)O)C(C)C; d(β3hA) = C[C@@H](N)CC(=O)O; NMeS = CN[C@@H](CO)C(=O)O; Morpholide = C1CN(*)CCO1; NMeA = CN[C@@H](C)C(=O)O; Piperidide = C1CCN(*)CC1; Pyrrolidide = C1CCN(*)C1; dNMeA = CN[C@H](C)C(=O)O; Ac5c = NC1(C(=O)O)CCCC1; Aze = O=C(O)[C@@H]1CCN1; CH2CMe2OH = CC(C)(O)C*; NBuGly = CCCCNCC(=O)O; Aib = CC(C)(N)C(=O)O; Isopentyl = CC(C)CC*; Sar = CNCC(=O)O

The target of the experiment is protein-protein interaction between Kras and SOS1 (biotin-tagged human Kras loaded with GDP, His-tagged human SOS1) (Homo sapiens (Human), UniProt P01116, G12D). The experiment is described as follows: Protein-protein interaction inhibition between Kras and SOS1 (KrasG12D-SOS PPI) using AlphaScreen.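 Further: kras produced in E. coli, Ni-coupled donor beads and streptavidin acceptor beads, excitation 680 nm with emission detected at 520–620 nm via singlet oxygen transfer.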 It is filed as biochemical. The settings on record: AlphaScreen; biotin-tagged human Kras loaded with GDP, His-tagged human SOS1; read-out: KRAS G12D-SOS PPI IC50.
By pIC50 is commonly meant −log10 of the IC50, conventionally taken in molar units. In the case of `CC[C@H](C)[C@@H]1NC(=O)[C@H](CC(C)C)N(CC)C(=O)C[C@@H](C(=O)N2CCCC2)N(C)C(=O)[C@H]([C@@H](C)CC)N(C)C(=O)C2(CCCC2)NC(=O)[C@@H]2CCCN2C(=O)[C@H](CCc2ccc(C(F)(F)F)c(Cl)c2)NC(=O)CN(C)C(=O)[C@H](Cc2ccc(C(F)(F)F)cc2)N(C)C(=O)[C@@H]2CCN2C(=O)[C@H](C)NC1=O` [Compound 1146] ([NEtLeu]IA[Aze][NMePhe(4-CF3)][Sar][hPhe(3-Cl-4-CF3)]P[Ac5c][NMeI][NMeD]-Pyrrolidide; lactam N-11), the pIC50 is 8.72.
The figure for `CC[C@H](C)[C@@H]1NC(=O)[C@H](CC(C)C)N(C)C(=O)C[C@@H](C)NC(=O)[C@H](C2CCCC2)N(C)C(=O)C2(CCCC2)NC(=O)[C@@H]2CCCN2C(=O)[C@H](CCc2ccc(C(F)(F)F)c(Cl)c2)NC(=O)[C@@H](C)N(C)C(=O)[C@H](Cc2ccc(C(F)(F)F)cc2)N(C)C(=O)[C@@H]2CCN2C(=O)CN(C)C1=O` [Compound 1468] (cyclo([Ac5c][NMeGly(cPent)][d(β3hA)][NMeL]I[Sar][Aze][NMePhe(4-CF3)][dNMeA][hPhe(3-Cl-4-CF3)]P)) is 7.05.
The figure for `CCCC[C@H]1C(=O)N[C@@H]([C@@H](C)CC)C(=O)N(C)[C@@H](C)C(=O)N2CC[C@H]2C(=O)N(C)[C@@H](CC2CCCCC2)C(=O)N(C)CC(=O)N[C@@H](CCc2ccc(C(F)(F)F)c(Cl)c2)C(=O)N2CCC[C@H]2C(=O)NC2(CCCC2)C(=O)N(C)[C@@H](C(C)C)C(=O)N(C)[C@H](C(=O)N2CCCCC2)CC(=O)N1C` [Compound 1616] ([NMeNle]I[NMeA][Aze][NMeCha][Sar][hPhe(3-Cl-4-CF3)]P[Ac5c][NMeV][NMeD]-Piperidide; lactam N-11) is 7.92.
As to `CCCCC[C@H]1C(=O)N[C@@H]([C@@H](C)CC)C(=O)N[C@@H](C)C(=O)N2CC[C@H]2C(=O)N(C)[C@@H](CC2CCCCC2)C(=O)N(C)CC(=O)N[C@@H](CCc2ccc(C(F)(F)F)c(Cl)c2)C(=O)N2CCC[C@H]2C(=O)NC2(CCCC2)C(=O)N(C)[C@@H](C2CCCC2)C(=O)N(C)[C@H](C(=O)N2CCOCC2)CC(=O)N1C` [Compound 263] ([NMeAhp(2)]IA[Aze][NMeCha][Sar][hPhe(3-Cl-4-CF3)]P[Ac5c][NMeGly(cPent)][NMeD]-Morpholide; lactam N-11), the pIC50 was 8.54.
The figure for `CCCCN1CC(=O)N(C)CC(=O)N(C)[C@@H](COCCC(C)C)C(=O)N(C)CC(=O)N[C@@H](CCc2ccc(C(F)(F)F)c(Cl)c2)C(=O)N(C)[C@@H](COCC(C)(C)O)C(=O)NC(C)(C)C(=O)N(C)[C@@H](C(C)C)C(=O)N[C@H](C)CC(=O)N(C)[C@@H](CC(C)C)C(=O)N[C@@H]([C@@H](C)CC)C1=O` [Compound 1505] (cyclo([Aib][NMeV][d(β3hA)][NMeL]I[NBuGly][Sar][NMeS](Isopentyl)[Sar][hPhe(3-Cl-4-CF3)][NMeS](CH2CMe2OH))) is 6.66; for `CCC[C@H]1C(=O)N(C)[C@H](C(=O)N2CCCCC2)CC(=O)N(C)[C@@H](CC(C)C)C(=O)N[C@@H]([C@@H](C)CC)C(=O)N(C)[C@@H](C)C(=O)N2CC[C@H]2C(=O)N(C)[C@@H](CC2CCCCC2)C(=O)N(C)CC(=O)N[C@@H](CCc2ccc(C(F)(F)F)c(Cl)c2)C(=O)N2CCC[C@H]2C(=O)NC2(CCCC2)C(=O)N1C` [Compound 995] ([NMeL]I[NMeA][Aze][NMeCha][Sar][hPhe(3-Cl-4-CF3)]P[Ac5c][NMeNva][NMeD]-Piperidide; lactam N-11) it is 8.24.
The figure for `CC[C@H](C)[C@@H]1NC(=O)[C@H](CC(C)C)N(CC)C(=O)C[C@@H](C(=O)N2CCOCC2)N(C)C(=O)[C@H]([C@@H](C)CC)N(C)C(=O)C2(CCCC2)NC(=O)[C@@H]2CCCN2C(=O)[C@H](CCc2ccc(C(F)(F)F)c(Cl)c2)NC(=O)CN(C)C(=O)[C@H](Cc2ccc(C(F)(F)F)cc2)N(C)C(=O)[C@@H]2CCN2C(=O)[C@H](C)NC1=O` [Compound 1233] ([NEtLeu]IA[Aze][NMePhe(4-CF3)][Sar][hPhe(3-Cl-4-CF3)]P[Ac5c][NMeI][NMeD]-Morpholide; lactam N-11) is 8.60.
